Tests used:
HRECs [1] = test: TUNEL apoptosis assay in HRECs; type: cell-based, human; conditions: anti-proliferative doses
Description: EdU incorporation, Ki-67 Staining and TUNEL. These assays were carried out as described previously (Basavarajappa et al., PLoS One 9:e95694 (2014); Basavarajappa et al., EMBO Mol Med 9:786-801 (2017)) with the exception of using chamber slides, not coverslips. Briefly, cells (30,000 per well) were seeded on 8-well chamber slides coated with attachment factors and allowed to attach overnight. Cells were treated with the indicated compound concentrations for 17 hours (overnight). To assay proliferation, cells were incubated with EdU in complete media for 8 hours at 37° C. Cells were then fixed in 4% paraformaldehyde for 20 minutes and permeabilized using 0.25% Triton X-100 prepared in PBS. Cells were incubated with a rabbit-specific monoclonal antibody against Ki-67 (D3B5) (#9129; Cell Signaling, Danvers, Mass.) (1:400) overnight at 4° C. Secondary antibody was Alexa Fluor goat anti-rabbit 488 (A11034; Invitrogen, Carlsbad, Calif.) with DAPI counter-stain for nuclear staining. Proliferating cells that incorporated EdU were detected using the Click-iT EdU Imaging kit (Invitrogen, Carlsbad, Calif.). […] The cells were imaged using a Zeiss AxioImager D2 microscope or an LSM 700 confocal microscope and the percentage of positive cells was counted on three low-power (for TUNEL) or high-power (for Ki-67 and EdU) fields per well using ImageJ software.

[2] = tested on: laser-induced choroidal neovascularization
HRECs [3] = test: Scratch wound cell migration assay, HRECs; type: cell-based, human
Description: (§1) In vitro cell migration assay. Endothelial cell migration was monitored as described before (Basavarajappa et al., PLoS One 9:e95694 (2014); Basavarajappa et al., EMBO Mol Med 9:786-801 (2017)). Briefly, HRECs and Rf/6a were grown until confluency in 12-well plates. Using a sterile 10-μL micropipette tip, a scratch wound was made across the center of each well and fresh complete media containing DMSO or different concentrations of APX2009 or APX2014 compounds were added to the wells (DMSO final concentration=1%). Wells were imaged via digital brightfield microscopy at different time points, and the number of migrated cells into the scratched area was manually counted.

[4] = tested on: murine choroidal explants; test: Ex vivo choroidal sprouting assay; type: cell-based, mouse; conditions: for reduction of choroidal sprouting compared to control: 48 hours
From the text: Animals. All animal experiments were approved by the Indiana University School of Medicine Institutional Animal Care and Use Committee and followed the guidelines of the Association for Research in Vision and Ophthalmology Statement for the Use of Animals in Ophthalmic and Visual Research. Wild-type female C57BL/6 mice, 6-8 weeks of age, were purchased from Envigo (Indianapolis, Ind.; for choroidal sprouting experiments) or Jackson Laboratory (Bar Harbor, Me.; for L-CNV) and housed under standard conditions (Wenzel et al., Mol Vis 21:515-522 (2015)). Mice were anesthetized for all procedures by intraperitoneal injections of 90 mg/kg ketamine hydrochloride and 5 mg/kg xylazine, with intraperitoneal atipamezole reversal (1 mg/kg). Treatments were randomly assigned by cage.
Choroidal sprouting assay. Ex vivo Choroidal sprouting was assessed as described previously (Sulaiman et al., Sci Rep 6:25509 (2016); Basavarajappa et al., EMBO Mol Med 9:786-801 (2017)). Briefly, choroid-sclera was dissected from 7 to 8 week old mouse eyes and pieces were embedded in Matrigel (growth factor reduced) and grown in EGM-2 medium containing antibiotics for 72 hours to allow sprouting to initiate. The indicated concentrations of APX2009 and APX2014 compounds (in DMSO, final DMSO concentration 0.5 and 0.2%, respectively) were added and growth allowed to proceed for 48 hours Images were taken and growth was quantified by measuring the distance from the edge of the choroidal piece to the growth front in four directions per sample using ImageJ software.

[5] = tested on: Rf/6a macaque choroidal endothelial cells; test: In vitro cell proliferation assay (alamarBlue), Rf/6a; type: cell-based; conditions: Macaca mulatta, Rf/6a choroidal endothelial cells, read-out: GI50 (median growth inhibition), Rf/6a
Description: Cells. Primary human retinal microvascular endothelial cells (HRECs) were obtained from Cell Systems, Inc. (Kirkland, Wash.), while the Rf/6a macacque choroidal endothelial cell line was obtained from ATCC (Manassas, Va.). Cells were maintained as described (Basavarajappa et al., EMBO Mol Med 9:786-801 (2017)), re-ordered at least annually, and regularly assessed for mycoplasma contamination.
In vitro cell proliferation assay. Endothelial cell proliferation was measured as described previously (Basavarajappa et al., PLoS One 9:e95694 (2014); Basavarajappa et al., EMBO Mol Med 9:786-801 (2017)). Briefly, 2.5×10^3 cells were seeded in 100 μL of growth medium and plated in each well of 96-well clear-bottom black plates and incubated for 24 hours. APX2009, APX2014, or DMSO vehicle (DMSO final concentration=1%) was added, and the plates were incubated for 24-48 hours in 100 μL complete medium at 37° C. and 5% CO2. AlamarBlue reagent (11.1 μL) was added to each well of the plate and 4 hours later fluorescence readings were taken at excitation and emission wavelengths of 560 nm and 590 nm, respectively, using a Synergy H1 plate reader (BioTek, Winooski, Vt.). GI50 was calculated using GraphPad Prism v. 7.0.

Rf/6a cells = test: Scratch wound cell migration assay, Rf/6a; type: cell-based, macaque
Description: as §1

Ref-1 = Ref-1 (Homo sapiens, UniProt P27695); test: Electrophoretic mobility shift assay (redox EMSA), Ref-1-induced AP-1 DNA binding; type: biochemical; conditions: 30 min pre-incubation with purified Ref-1, read-out: IC50 for redox EMSA inhibition
Ref-1, sequence (P27695 whole entry): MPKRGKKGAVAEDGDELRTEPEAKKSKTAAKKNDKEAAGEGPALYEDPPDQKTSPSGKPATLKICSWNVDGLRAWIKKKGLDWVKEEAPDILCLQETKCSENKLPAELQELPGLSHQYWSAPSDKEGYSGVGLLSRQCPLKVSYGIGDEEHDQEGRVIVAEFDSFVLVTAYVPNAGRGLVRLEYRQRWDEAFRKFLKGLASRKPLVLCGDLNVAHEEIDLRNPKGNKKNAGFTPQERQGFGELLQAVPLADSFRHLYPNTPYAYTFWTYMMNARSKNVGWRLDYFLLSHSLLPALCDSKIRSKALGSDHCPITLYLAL
Description: Electrophoretic mobility shift assays (EMSA). These assays were performed as previously described (Luo et al., Antioxid Redox Signal 10:18531867 (2008); Kelley et al., Antioxid Redox Signal 14:1387-1401 (2011); Su et al., Biochemistry 50:82-92 (2011); Luo et al., Biochemistry 51:695-705 (2012); Zhang et al., Biochemistry 52:2955-2966 (2013)). […] The EMSA assay was performed using the AP-1 target DNA sequence and AP-1 protein.

Row | SMILES | apoptosis by TUNEL (HRECs [1]) | L-CNV on systemic administration (summary statement) [2] | cell migration in scratch wound assay, HRECs (HRECs [3]) | reduction of choroidal sprouting compared to control ([4]; at 1 μM (highest concentration tested)) | concentrations inhibiting choroidal sprouting ex vivo [4] | GI50 [5] | cell migration in scratch wound assay, Rf/6a (Rf/6a cells) | IC50 (Ref-1) | fluorescein leakage in lesions (fluorescein angiography) ([2]; 25 mg/kg i.p., Day 14) | intraocular or systemic toxicity in vivo ([2]; i.p. dosing in L-CNV mice) | effect on L-CNV ([2]; i.p., 12.5 mg/kg twice daily for two weeks) | reduction of choroidal sprouting compared to control ([4]; at 10 μM)
1 | CCC/C(=C\C1=C(OC)C(=O)c2ccccc2C1=O)C(=O)NOC [APX2014, (2E)-2-[(3-methoxy-1,4-dioxo-1,4-dihydronapthalen-2-yl)methylidene]-N-methoxypentanamide] | neither compound induced apoptosis | can attenuate L-CNV | significantly inhibited | ~60% | high nanomolar | 5000 nM | significantly inhibited | 200 nM |  |  |  | 
2 | CCC/C(=C\C1=C(OC)C(=O)c2ccccc2C1=O)C(=O)N(CC)CC [APX2009, (2E)-2-[(3-methoxy-1,4-dioxo-1,4-dihydronaphthalen-2-yl)methylidene]-N,N-diethylpentanamide] | neither compound induced apoptosis | can attenuate L-CNV | significantly inhibited |  | low micromolar | 26000 nM | significantly inhibited | 450 nM | qualitatively less fluorescein leakage | not observed obvious intraocular or systemic toxicity | did not reduce L-CNV | ~70%

— US11723886B2, “Targeting ocular diseases with novel APE1/Ref-1 inhibitors” (Indiana University Research and Technology Corporation, priority 2018, dated 2023)
